This note sets out measurements from patent US10604523B2, “1-aryl-4-methyl-[1,2,4]triazolo[4,3-a]quinoxaline derivatives” (Janssen Pharmaceutica NV, priority 2011, dated 2020).

The target of series [1] is T1, Rat recombinant PDE10A (rPDE10A2) (Rattus norvegicus, UniProt Q9QYJ6).
T1 construct: made in house; host or cells: Sf9 insect cells (baculovirus)
T1 sequence (Q9QYJ6 1-794): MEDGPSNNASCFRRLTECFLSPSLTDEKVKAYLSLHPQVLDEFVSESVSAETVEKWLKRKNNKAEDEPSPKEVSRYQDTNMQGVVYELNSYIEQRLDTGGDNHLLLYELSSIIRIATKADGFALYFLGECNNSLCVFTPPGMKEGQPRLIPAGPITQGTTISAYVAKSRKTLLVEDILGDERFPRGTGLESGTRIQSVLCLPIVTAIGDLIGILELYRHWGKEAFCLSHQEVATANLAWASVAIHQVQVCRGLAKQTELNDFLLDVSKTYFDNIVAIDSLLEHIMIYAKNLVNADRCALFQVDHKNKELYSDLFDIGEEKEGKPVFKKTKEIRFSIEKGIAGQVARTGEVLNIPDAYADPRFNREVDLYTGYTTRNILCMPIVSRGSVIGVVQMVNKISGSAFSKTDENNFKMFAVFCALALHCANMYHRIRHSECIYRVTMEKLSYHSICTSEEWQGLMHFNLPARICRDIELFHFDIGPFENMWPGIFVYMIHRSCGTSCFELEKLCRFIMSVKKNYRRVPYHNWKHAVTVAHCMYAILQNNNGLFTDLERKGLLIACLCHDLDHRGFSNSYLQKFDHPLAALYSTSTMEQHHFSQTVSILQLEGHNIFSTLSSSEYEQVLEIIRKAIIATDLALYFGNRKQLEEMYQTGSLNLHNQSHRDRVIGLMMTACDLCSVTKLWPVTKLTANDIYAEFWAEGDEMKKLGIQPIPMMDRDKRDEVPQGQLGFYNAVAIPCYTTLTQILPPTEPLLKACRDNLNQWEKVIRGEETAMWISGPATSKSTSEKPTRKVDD
Put plainly: In vitro assay PDE10A (SPA, 3H-cAMP). The class given is biochemical. As to conditions: -log IC50 expressed in mol/L, rPDE10A2, 60 nM cAMP.

The subject of series [2] is cAMP and cGMP levels in the rat brain (hippocampus and striatum). Put plainly: Effect of PDE-inhibitors ex-vivo studies in rat: cAMP and cGMP levels in brain. As to conditions: 10 mg/kg s.c., -1 h.
Method: Upon arrival, the animals (body weight 210-240 g) were housed in groups of 5 and fed normal chow at libitum.
Compounds and/or solvent were administered either orally, subcutaneously or IV. […] After microwave, the rats were decapitated and the heads cooled immediately with ice cold physiological saline. […] 10 vol (w/v) of 0.1N HCl were added. The tissue was homogenized for 3 min at 30 Hz using a Tissuelyser from Qiagen.
The homogenate was transferred into an Eppendorf tube (1.5 ml) and after centrifugation for 15 min at 1600 g in a pre-cooled (4C) Eppendorf centrifuge, the supernatant was collected and stored at −80° C. until analysis.
The cAMP and cGMP levels were measured in the rat brain (hippocampus and striatum) to establish in vivo target engagement and central pharmacological effect of PDE2 inhibition.
Series [3] can be described thus: Plasma radiometabolite analysis of [18F]B-23. The class given is in vivo, rat. As to conditions: rat plasma, n=1. As to the method: The metabolic stability of the tracer was studied in normal rats by determination of the relative amounts of parent tracer and radiometabolites in plasma and brain at 2 min and 10 min p.i. of the tracer. […] (n=1), blood was collected in lithium heparin containing tubes (4.5 mL LH PST tubes; BD vacutainer, BD, Franklin Lakes, USA) and stored on ice. Brain was dissected and rinsed with saline (decapitation was preferred since it was difficult to have the rat perfused already at 2 min p.i.). For the 10 min timepoint, rats (n=1) were injected with about 37 MBq of tracer and sacrificed at 10 min p.i by administering an overdose of Nembutal (CEVA Sante Animale, 200 mg/kg intraperitoneal). The rats were perfused by injection of saline into the left ventricle until the liver turned pale. During perfusion, blood was collected and stored on ice. Brain was isolated.
For the plasma radiometabolite analysis, the blood was centrifugated for 10 min at 3000 rpm to separate the plasma. A volume of about 0.1 mL of plasma sample was isolated and spiked with about 10 μL of authentic non-radioactive reference material (1 mg/mL) for identification. The plasma was then injected onto an HPLC system consisting of a Chromolith Performance column (C18, 3 mm×100 mm, Merck) that was eluted with mixtures of 0.05 M NaOAc pH 5.5 (solvent A) and acetonitrile (solvent B). The following method was used for the analysis: isocratic elution with 100% A for 4 min at a flow rate of 0.5 mL/min, then linear gradient to 90% B by 14 min at a flow rate of 1 mL/min, and isocratic elution with a mixture of 10% A and 90% B at a flow rate of 1 mL/min until 17 min. After passing through an in-line UV detector (254 nm) and over a 3 in. NaI(Tl) scintillation detector connected to a single channel analyzer (Gabi box, Raytest, Straubenhardt Germany), the HPLC eluate was collected per minute using an automatic fraction collector. The radioactivity in all fractions was measured using an automated gamma counter. The peak corresponding to the intact tracer eluted at ˜11 min. Polar radiometabolite(s) were eluting from 1 to 3 min. Slightly more polar radiometabolites (relatively to the polarity of the intact tracer) were eluting just before the intact tracer. Faster metabolisation is observed in plasma compared to brain. At 2 min p.i., about 70% of the recovered radioactivity was present as intact tracer. Two more polar radiometabolites (M1, M3) were observed of which one (M3) was closely eluting to the intact tracer. At 10 min p.i., the presence of a large amount of a third polar metabolite (M2, also closely eluting to the parent compound) was observed which accounted for about 60% of the recovered radioactivity. At 10 min p.i., only ˜20% of the recovered radioactivity was still present as intact tracer.

The nature of series [4]: Biodistribution study of [18F]B-23. As to conditions: normal rats, mean ± SD, n=3.
Method: The biodistribution study was carried out in male Wistar rats (body weight 320-370 g) at 2 min, 10 min and 30 min post injection (p.i.) (n=3/time point). […] Blood and major organs were collected in tared tubes and weighed. The radioactivity in blood, organs and other body parts was measured using an automated gamma counter. The distribution of radioactivity in different parts of the body at different time points p.i. of the tracer was calculated and expressed as percentage of injected dose (% ID), and as standardized uptake values (SUV) for the selected organs. % ID is calculated as counts per minute (cpm) in organ/total cpm recovered. SUVs are calculated as (radioactivity in cpm in organ/weight of the organ in g)/(total counts recovered/body weight in g). For calculation of total radioactivity in blood, blood mass was assumed to be 7% of the body mass.

Each structure is given as a SMILES string.

For `CCCCOc1cncc(-c2nnc3c(C)nc4ccc(CN(C)C)cc4n23)c1` [Compound B-197], the “PIC50 PDE10” value in series [1] is 5.03. In series [2], the “Hippocampus cAMP (% of Control)” value is given as 122 ± 10 % of Control, the “Hippocampus cGMP (% of Control)” value is reported as 104 ± 32 % of Control, the “Striatum cAMP (% of Control)” value is on record as 89 ± 6 % of Control and the “Striatum cGMP (% of Control)” value is given as 128 ± 26 % of Control.

For `CCCCOc1ccc(Cl)c(-c2nnc3c(C)nc4ccc(CN(C)C)cc4n23)c1` [Compound B-88], in series [1] (read-out: PIC50 PDE10 (converted)), the IC50 is 2140 nM. In series [2], the “Hippocampus cAMP (% of Control)” value is listed as 117 ± 20 % of Control, the “Hippocampus cGMP (% of Control)” value is on record as 150 ± 42 % of Control, the “Striatum cAMP (% of Control)” value is 88 ± 12 % of Control and the “Striatum cGMP (% of Control)” value is 121 ± 20 % of Control.

Take `Cc1nc2ccc(CN3CCOCC3)cc2n2c(-c3c([18F])cccc3Cl)nnc12` [[18F]B-23, 1-[2-Chloro-6-(^18F)fluorophenyl]-4-methyl-8-(morpholin-4-ylmethyl)[1,2,4]triazolo[4,3-a]quinoxaline]: in series [3] (2 min p.i.), the “% in plasma Intact tracer” value is listed as 70%, the “% in plasma Polar metabolite M1” value is on record as 16% and the “% in plasma Polar metabolite M3” value was found to be 14%. In addition, in series [3] (10 min p.i.), the “% in plasma Intact tracer” value stood at 18%, the “% in plasma Polar metabolite M1” value is listed as 10%, the “% in plasma Polar metabolite M2” value is 61% and the “% in plasma Polar metabolite M3” value was found to be 12%. Further, in series [4] (2 min p.i.), the “% ID Blood” value amounted to 6.69 ± 0.4 % ID, the “% ID Carcass” value is 42.54 ± 4.8 % ID, the “% ID Cerebellum” value is given as 0.096 ± 0.022 % ID and the “% ID Cerebrum total” value amounted to 1.030 ± 0.130 % ID. Besides, in series [4] (2 min p.i.), the “% ID Cortex” value was determined as 0.086 ± 0.017 % ID, the “% ID Heart” value worked out at 0.81 ± 0.0 % ID, the “% ID Hippocampus” value amounted to 0.036 ± 0.002 % ID and the “% ID Intestines” value stood at 9.51 ± 1.1 % ID. For the same molecule, in series [4] (2 min p.i.), the “% ID Kidneys” value turned out to be 4.68 ± 0.7 % ID, the “% ID Liver” value worked out at 30.79 ± 4.6 % ID, the “% ID Lungs” value was 2.27 ± 1.2 % ID and the “% ID Rest of cerebrum” value worked out at 0.809 ± 0.130 % ID. In series [4] (2 min p.i.), the “% ID Spleen + Pancreas” value is 1.57 ± 0.1 % ID, the “% ID Stomach” value is 2.44 ± 0.3 % ID, the “% ID Striatum” value turned out to be 0.098 ± 0.010 % ID and the “% ID Urine” value stood at 0.25 ± 0.1 % ID. Also, in series [4] (10 min p.i.), the “% ID Blood” value worked out at 6.27 ± 0.5 % ID, the “% ID Carcass” value is on record as 37.39 ± 4.9 % ID, the “% ID Cerebellum” value was 0.020 ± 0.002 % ID and the “% ID Cerebrum total” value came out at 0.212 ± 0.006 % ID. In series [4] (10 min p.i.), the “% ID Cortex” value came to 0.016 ± 0.004 % ID, the “% ID Heart” value amounted to 0.23 ± 0.0 % ID, the “% ID Hippocampus” value is 0.006 ± 0.001 % ID and the “% ID Intestines” value is 10.97 ± 1.5 % ID. Further, in series [4] (10 min p.i.), the “% ID Kidneys” value was 6.02 ± 1.2 % ID, the “% ID Liver” value is reported as 37.83 ± 3.3 % ID, the “% ID Lungs” value is 0.68 ± 0.1 % ID and the “% ID Rest of cerebrum” value is listed as 0.159 ± 0.006 % ID. In addition, in series [4] (10 min p.i.), the “% ID Spleen + Pancreas” value is recorded as 0.42 ± 0.0 % ID, the “% ID Stomach” value is 2.77 ± 0.8 % ID, the “% ID Striatum” value is recorded as 0.031 ± 0.005 % ID and the “% ID Urine” value is on record as 0.61 ± 0.5 % ID. Also, in series [4] (30 min p.i.), the “% ID Blood” value amounted to 4.10 ± 0.6 % ID, the “% ID Carcass” value came to 23.75 ± 1.9 % ID, the “% ID Cerebellum” value is 0.011 ± 0.005 % ID and the “% ID Cerebrum total” value is recorded as 0.084 ± 0.026 % ID. In series [4] (30 min p.i.), the “% ID Cortex” value worked out at 0.006 ± 0.003 % ID, the “% ID Heart” value came out at 0.12 ± 0.0 % ID, the “% ID Hippocampus” value is on record as 0.003 ± 0.001 % ID and the “% ID Intestines” value was 19.75 ± 5.6 % ID. In series [4] (30 min p.i.), the “% ID Kidneys” value is 8.24 ± 0.3 % ID, the “% ID Liver” value amounted to 29.30 ± 4.8 % ID, the “% ID Lungs” value came to 0.46 ± 0.0 % ID and the “% ID Rest of cerebrum” value came to 0.064 ± 0.024 % ID. In series [4] (30 min p.i.), the “% ID Spleen + Pancreas” value was 0.32 ± 0.1 % ID, the “% ID Stomach” value was 4.81 ± 0.3 % ID, the “% ID Striatum” value was found to be 0.012 ± 0.001 % ID and the “% ID Urine” value amounted to 10.80 ± 1.2 % ID.
